{"source": "patent US20200147039A1", "about": "“COMPOUNDS USEFUL IN INHIBITING HUMAN TREFOIL FACTOR 3” (NATIONAL UNIVERSITY OF SINGAPORE, priority 2017, published 2020)", "key": {"[1]": {"test_system": "BT474", "assay": "AlamarBlue cell viability assay, BT474", "format": "cell-based", "settings": "Homo sapiens, BT-474, Mammary", "text": "(§1) (A) Inhibitory concentration 50% (IC50) values for compound 43 in the MC cell lines are tabulated, using an AlamarBlue™ cell viability assay as previously described in Pandey V et al., Breast Cancer Res. 2014; 16(5):429. (B) Measured dose-dependent manner effect of compound 43 on the viability of MC cells (left-side, TFF3-high and right, TFF3-low) using AlamarBlue™ viability assay as previously described (ibid). (C) Apoptotic cell death of mammary carcinoma cell lines measured after treatment with 10 μM compound 43 using flow cytometry analysis at 24 hour as described previously in Keerthy H K et al., PloS one. 2014; 9(9):e107118. Annexin V-FITC staining is indicated on the X-axis and PI staining on the Y-axis. […] Acquisition of Annexin V and PI data were represented as percentage (%) in each quadrant. Note: CM, conditioned media; MCF10A and MCF12A, non-transformed immortalized-mammary epithelial cell line. Points are mean of triplicate experiments; bars, ±SD. Statistical significance was assessed by using an unpaired two-tailed Student's t test (P<0.05 was considered as significant) using GraphPad Prism5. […]\n(§2) In table 9 IC50 values of compound 43 compound library in several cancer cell lines are tabulated, using an AlamarBlue® cell viability assay as previously described in Pandey V et al., Breast Cancer Res. 2014; 16(5):429. Statistical analysis was assessed by using GraphPad Prism5. […]"}, "[2]": {"test_system": "BT20", "assay": "AlamarBlue cell viability assay, BT20", "format": "cell-based", "settings": "Homo sapiens, BT-20, Mammary", "text": "as §1, §2"}, "[3]": {"test_system": "HTH83", "assay": "AlamarBlue cell viability assay, HTH83", "format": "cell-based", "settings": "Homo sapiens, Thyroid", "protocol": "(§3) The human immortalized mammary epithelial cell lines, MCF10A, and MCF12A; and immortalized hepatocellular epithelial cell line, LO2 were obtained from the American Type Culture Collection (ATCC, Rockville, Md.) and were cultured as per ATCC propagation instructions. MC cell lines, MCF7, T47D, BT474, BT20, MDA-MB-361, MDA-MB-436, MDA-MB-468, and MDA-MB-231; endometrial carcinoma cell lines, Ishikawa, ECC1, RL95-2 and AN3; hepatocellular carcinoma cell lines, Hep3B, H2P, and H2M; colon carcinoma cell lines, DLD-1, and Caco-2; and prostate carcinoma cell lines, PC3, LNCaP, and DU145 were obtained from the American Type Culture Collection (ATCC, Rockville, Md.). Pancreatic carcinoma cell lines, AsPC-1 and BxPC-3; Lung carcinoma cell lines, HCC-827, NCI-H1975, HCC-4006, PC-14, and NCI-H1299; and Thyroid carcinoma cell lines HTH83, CAL62, T238, and OGK-M were obtained from Prof. H. Phillip Koeffler's laboratory at The Cancer Science Institute of Singapore, National University of Singapore (NUS). Gastric carcinoma cell lines, AGS, MKN-28, MKN-45, and A2-528 were obtained from Prof. […]\nas §2"}, "[4]": {"test_system": "H2P", "assay": "AlamarBlue cell viability assay, H2P", "format": "cell-based", "settings": "Homo sapiens, Hepatocellular", "protocol": "as §3, §2"}, "[5]": {"test_system": "AGS", "assay": "AlamarBlue cell viability assay, AGS", "format": "cell-based", "settings": "Homo sapiens, Gastric", "protocol": "as §3, §2"}, "[6]": {"test_system": "RL95-2", "assay": "AlamarBlue cell viability assay, RL95-2", "format": "cell-based", "settings": "Homo sapiens, Endometrial", "protocol": "as §3, §2"}, "[7]": {"test_system": "HCC827", "assay": "AlamarBlue cell viability assay, HCC827", "format": "cell-based", "settings": "Homo sapiens, Lung", "protocol": "as §3, §2"}, "[8]": {"test_system": "TFF3-high expressing mammary carcinoma (MC) cell lines", "assay": "AlamarBlue viability and Annexin V-FITC/PI flow cytometry in mammary carcinoma cell lines (FIG. 1)", "format": "cell-based, human", "text": "(A) Inhibitory concentration 50% (IC50) values for compound 43 in the MC cell lines are tabulated, using an AlamarBlue™ cell viability assay as previously described in Pandey V et al., Breast Cancer Res. 2014; 16(5):429. (B) Measured dose-dependent manner effect of compound 43 on the viability of MC cells (left-side, TFF3-high and right, TFF3-low) using AlamarBlue™ viability assay as previously described (ibid). (C) Apoptotic cell death of mammary carcinoma cell lines measured after treatment with 10 μM compound 43 using flow cytometry analysis at 24 hour as described previously in Keerthy H K et al., PloS one. 2014; 9(9):e107118. Annexin V-FITC staining is indicated on the X-axis and PI staining on the Y-axis. […] Acquisition of Annexin V and PI data were represented as percentage (%) in each quadrant. Note: CM, conditioned media; MCF10A and MCF12A, non-transformed immortalized-mammary epithelial cell line. Points are mean of triplicate experiments; bars, ±SD. Statistical significance was assessed by using an unpaired two-tailed Student's t test (P<0.05 was considered as significant) using GraphPad Prism5. Columns are mean of triplicate experiments; bars, ±SD. **P<0.001, *P<0.05."}, "[9]": {"test_system": "LNCaP", "assay": "AlamarBlue cell viability assay, LNCaP", "format": "cell-based", "settings": "Homo sapiens, Prostate", "protocol": "as §3, §2"}, "[10]": {"test_system": "ECC1", "assay": "AlamarBlue cell viability assay, ECC1", "format": "cell-based", "settings": "Homo sapiens, ECC-1, Endometrial", "protocol": "as §3, §2"}, "[11]": {"test_system": "MCF7 cells with forced expression of TFF3", "assay": "MCF7 cells with forced expression of TFF3: western blot, cell viability, caspase 3/7 (FIG. 5)", "format": "cell-based, human", "settings": "MCF7 cells with forced expression of TFF3, 5 μM", "protocol": "(A) Western blot analysis was used to assess the levels of pSTAT3, STAT3, BCL2, and CCND1 protein in MCF7 cells with forced expression of TFF3 after treatment with compound 43 (5 μM) and Stattic (2 μM) was used to treat cells. Depletion of STAT3 expression was achieved using transient-transfection of small interfering (si)-RNA (Invitrogen, Singapore) directed to STAT3 transcript as previously described in Pandey V et al., Breast Cancer Res. 2014; 16(5):429. Anti-TFF3 polyclonal antibody was used as previously described (ibid). Soluble whole cell extracts were run on a SDS-PAGE and immunoblotted as previously described (ibid). β-ACTIN was used as input control for cell lysate. The sizes of detected protein bands in kDa are shown on the right side (B) Cell viability and (C) caspase 3/7 activities in MCF7 cells with forced expression of TFF3 after treatment with compound 43 (5 μM) and Stattic (2 μM) was used to treat cells. […] Evaluated using ApoTox-Glo™ Triplex Assay Kit, Promega (Singapore) according to manufacturer's instructions. Cell viability fluorescence is measured at 400Ex/505Em, while apoptosis (caspase 3/7 activities) is determined with the luminescence measurement. […] Statistical significance was assessed by using an unpaired two-tailed Student's t test (P<0.05 was considered as significant) using GraphPad Prism5. […]"}, "[12]": {"test_system": "AN3", "assay": "AlamarBlue cell viability assay, AN3", "format": "cell-based", "settings": "Homo sapiens, Endometrial", "protocol": "as §3, §2"}, "[13]": {"test_system": "DLD-1", "assay": "AlamarBlue cell viability assay, DLD-1", "format": "cell-based", "settings": "Homo sapiens, Colon", "protocol": "as §3, §2"}}}
{"compound": "Cc1cc(-c2ccc(C3C(C#N)=C(N)Oc4c3c(=O)oc3ccccc43)cc2)cnc1F", "note": "(centres unmarked) [Compound 43, 2-Amino-4-(4-(6-fluoro-5-methylpyridin-3-yl)phenyl)-5-oxo-4H,5H-pyrano[3,2-c]chromene-3-carbonitrile]", "values": [{"measurement": "IC50", "setting": "[1]", "result": 2.69, "unit": "µM"}, {"measurement": "IC50", "setting": "[2]", "result": 468, "unit": "µM"}, {"measurement": "IC50", "setting": "[3]", "result": 0.56, "unit": "µM"}, {"measurement": "IC50", "setting": "[4]", "result": 11.3, "unit": "µM"}, {"measurement": "IC50", "setting": "[5]", "result": 3.08, "unit": "µM"}, {"measurement": "IC50", "setting": "[6]", "result": 90.5, "unit": "µM"}, {"measurement": "IC50", "setting": "[7]", "result": 0.93, "unit": "µM"}, {"measurement": "apoptosis", "setting": "[8]; 10 μM, 24 hour, Annexin V-FITC/PI flow cytometry", "result": "stimulates apoptosis"}, {"measurement": "cell viability", "setting": "[8]; AlamarBlue", "result": "suppresses cell viability"}, {"measurement": "IC50", "setting": "[9]", "result": 226, "unit": "µM"}, {"measurement": "IC50", "setting": "[10]", "result": 4.64, "unit": "µM"}, {"measurement": "TFF3-stimulated effects", "setting": "[11]", "result": "reverted"}, {"measurement": "IC50", "setting": "[12]", "result": 289, "unit": "µM"}, {"measurement": "IC50", "setting": "[13]", "result": 4.12, "unit": "µM"}]}
